The record followed here is ChEMBL document CHEMBL3286176, “Discovery and structure-activity relationship of novel 2,3-dihydrobenzofuran-7-carboxamide and 2,3-dihydrobenzofuran-3(2H)-one-7-carboxamide derivatives as poly(ADP-ribose)polymerase-1 inhibitors” (J Med Chem, 2014).

Series [1] has as its target Poly [ADP-ribose] polymerase 1 (Homo sapiens, UniProt P09874). Put plainly: Inhibition of PARP-1 (unknown origin) using biotinylated NAD+ as substrate after 60 mins by spectrophotometry.
The nature of series [2]: Cytotoxicity against chicken wild-type DT40 cells assessed as cell viability at 10 uM after 72 hrs by ATPlite assay. In kind it is cell-based, Gallus gallus. The note with it: dt40, 72 h.
A short description of series [3]: Cytotoxicity against chicken PARP1-deficient DT40 cells assessed as cell viability at 10 uM after 72 hrs by ATPlite assay. The note with it: dt40, 72 h. In kind it is cell-based, Gallus gallus.
A short description of series [4]: Cytotoxicity against chicken BRCA2-deficient DT40 cells assessed as cell viability after 72 hrs by ATPlite assay. Type of series: cell-based, Gallus gallus.

Where only a bound is given, the exact number is not on record here.

Poly [ADP-ribose] polymerase 1, sequence (P09874 whole entry): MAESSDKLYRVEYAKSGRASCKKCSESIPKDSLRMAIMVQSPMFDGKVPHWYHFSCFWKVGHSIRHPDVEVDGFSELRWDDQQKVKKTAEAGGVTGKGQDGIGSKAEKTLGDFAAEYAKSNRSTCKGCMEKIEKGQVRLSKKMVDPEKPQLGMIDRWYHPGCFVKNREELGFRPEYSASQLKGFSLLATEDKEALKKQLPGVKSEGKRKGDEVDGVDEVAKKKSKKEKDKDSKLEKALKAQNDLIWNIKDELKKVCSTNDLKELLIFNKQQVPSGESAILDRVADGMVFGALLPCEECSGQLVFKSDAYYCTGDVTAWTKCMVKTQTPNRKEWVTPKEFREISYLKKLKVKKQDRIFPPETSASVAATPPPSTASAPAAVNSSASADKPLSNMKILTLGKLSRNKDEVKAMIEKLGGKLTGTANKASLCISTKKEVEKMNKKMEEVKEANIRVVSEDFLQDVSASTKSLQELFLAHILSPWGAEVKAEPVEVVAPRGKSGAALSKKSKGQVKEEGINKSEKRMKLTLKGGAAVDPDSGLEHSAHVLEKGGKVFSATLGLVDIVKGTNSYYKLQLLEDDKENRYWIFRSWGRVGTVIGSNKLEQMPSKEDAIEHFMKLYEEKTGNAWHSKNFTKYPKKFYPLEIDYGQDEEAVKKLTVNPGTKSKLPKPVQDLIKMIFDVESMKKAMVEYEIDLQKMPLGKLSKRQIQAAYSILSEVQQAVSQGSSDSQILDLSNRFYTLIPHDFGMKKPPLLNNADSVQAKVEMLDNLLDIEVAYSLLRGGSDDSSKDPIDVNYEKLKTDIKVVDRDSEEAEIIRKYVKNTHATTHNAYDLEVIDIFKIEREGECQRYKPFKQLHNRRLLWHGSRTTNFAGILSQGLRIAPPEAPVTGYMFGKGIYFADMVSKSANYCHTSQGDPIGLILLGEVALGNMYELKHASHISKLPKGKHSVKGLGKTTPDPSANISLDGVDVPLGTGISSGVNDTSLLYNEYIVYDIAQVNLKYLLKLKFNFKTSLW

Molecule `NC(=O)c1cccc2c1OCC2` came in with an IC50 in series [1] of 9.45 µM. The same measure, in the same setting: then `NC(=O)c1cc(Br)cc2c1OCC2`, with > 25 µM; and `NC(=O)c1cc([N+](=O)[O-])cc2c1OCC2`, with > 25 µM; and `NC(=O)c1cc(N)cc2c1OCC2`, with > 25 µM.

With `C[C@@H]1Cc2cccc(C(N)=O)c2O1`, the IC50 in series [1] came out at 6.34 µM. As for `C[C@H]1Cc2cccc(C(N)=O)c2O1`, the midpoint of inhibition in series [1], the IC50, lay at 8.44 µM. On to `Cc1cc2c(c(C(N)=O)c1)OC(C)C2` (stereo unspecified), for which the IC50 in series [1] is > 25 µM. For the molecule `C[C@@H]1Cc2cc(F)cc(C(N)=O)c2O1`, in series [1], half-maximal inhibition (IC50) required 1.53 µM. This counts as single-digit micromolar. The molecule `C[C@H]1Cc2cc(F)cc(C(N)=O)c2O1` had an IC50 in series [1] of 3.62 µM.

`CC1Cc2cc([N+](=O)[O-])cc(C(N)=O)c2O1` (stereo unspecified): the IC50 in series [1] was > 25 µM.

With `CC1Cc2cc(N)cc(C(N)=O)c2O1` (stereo unspecified), the IC50 in series [1] was > 25 µM. Take `NC(=O)c1cc(F)cc2c1OCC2`: 2.12 µM corresponded to half-maximal inhibition in series [1] (IC50). `NC(=O)c1nn(CCCN2C(=O)C(=O)c3ccccc32)c2ccccc12` gave an IC50 in series [1] of 6.8 µM. This IC50 lies about 3.2-fold higher than the previous one.

`NC(=O)c1cccc2c1OCC2=O` yielded an IC50 in series [1] of 16.2 µM. Take `NC(=O)c1cccc2c1O/C(=C\c1cccc(Oc3ccccc3)c1)C2=O`: in series [1], the midpoint of inhibition, the IC50, lay at 4.65 µM. In the case of `NC(=O)c1cccc2c1O/C(=C\c1ccc(Cl)cc1)C2=O`, the IC50 in series [1] was 6.09 µM. `COc1cc(/C=C2\Oc3c(C(N)=O)cccc3C2=O)ccc1O`: in series [1], the IC50 amounted to 3.62 µM. Take `COc1ccc(/C=C2\Oc3c(C(N)=O)cccc3C2=O)cc1`: the IC50 in series [1] was 3.3 µM.

As to `NC(=O)c1cccc2c1O/C(=C\c1ccccc1O)C2=O`, the IC50 in series [1] was > 10 µM. With `NC(=O)c1cccc2c1O/C(=C\c1cccc(O)c1)C2=O`, in series [1], the IC50 was found to be 2.14 µM.

The molecule `NC(=O)c1cccc2c1O/C(=C\c1ccc(O)cc1)C2=O` showed an IC50 in series [1] of 0.813 µM. For `NC(=O)c1cccc2c1O/C(=C\c1ccc(O)c(O)c1)C2=O`, the midpoint of inhibition in series [1], the IC50, lay at 0.531 µM. In series [1], `NC(=O)c1cccc2c1O/C(=C\c1ccc(O)cc1O)C2=O` came in with an IC50 of 0.753 µM.

For the molecule `NC(=O)c1cccc2c1O/C(=C\c1cc(O)cc(O)c1)C2=O`, the IC50 in series [1] was > 10 µM. With `NC(=O)c1cccc2c1O/C(=C\c1cc(O)ccc1O)C2=O`, the IC50 in series [1] was > 10 µM. Take `NC(=O)c1cccc2c1O/C(=C\c1cccc(OCCN3CCOCC3)c1)C2=O`: the IC50 in series [1] was > 10 µM. As for `NC(=O)c1cccc2c1O/C(=C\c1cccc(OCCN3CCCCC3)c1)C2=O`, in series [1], the IC50 is > 10 µM.

Regarding `NC(=O)c1cccc2c1O/C(=C\c1ccc(OCCN3CCCCC3)cc1)C2=O`, half-maximal inhibition in series [1] (IC50) required 0.544 µM. `NC(=O)c1cccc2c1O/C(=C\c1ccc(OCCN3CCOCC3)cc1)C2=O` displayed an IC50 in series [1] of 2.07 µM. This IC50 lies about 3.8-fold higher than the previous one.

`CN1CCN(CCOc2ccc(/C=C3\Oc4c(C(N)=O)cccc4C3=O)cc2)CC1` yielded an IC50 in series [1] of 0.114 µM. Also, the Activity entry in series [2] and in series [3] was “Toxic” in each case. Further, in series [4], the 90% effect concentration (IC90) at 72 h is 5.2 µM. For `NC(=O)c1cccc2c1O/C(=C\c1ccc(OCCCN3CCOCC3)cc1)C2=O`, the IC50 in series [1] was 0.718 µM. This counts as sub-micromolar. On the same count and under the same terms, then `NC(=O)c1cccc2c1O/C(=C\c1ccc(OCC(=O)N3CCOCC3)cc1)C2=O`, with 0.223 µM; and `NC(=O)c1cccc2c1O/C(=C\c1ccc(OCC3CO3)cc1)C2=O` (stereo unspecified), with 1.21 µM; and `NC(=O)c1cccc2c1O/C(=C\c1ccc(OCC(O)CN3CCOCC3)cc1)C2=O` (stereo unspecified), with 0.176 µM.

In series [1], `NC(=O)c1cccc2c1O/C(=C\c1ccc(OCCN3CCN(c4ccc(F)cc4)CC3)cc1)C2=O` showed an IC50 of 0.445 µM. On the same count and under the same terms, as for `CN1CCN(CCS(=O)(=O)Nc2ccc(/C=C3\Oc4c(C(N)=O)cccc4C3=O)cc2)CC1`, the figure is 0.079 µM; as for `CN1CCN(CCCS(=O)(=O)Nc2ccc(/C=C3\Oc4c(C(N)=O)cccc4C3=O)cc2)CC1`, 0.113 µM; as for `CC1Cc2cccc(C(N)=O)c2O1` (racemic), 10.4 µM. `CC1Cc2cc(F)cc(C(N)=O)c2O1` (racemic) displayed an IC50 in series [1] of 2.45 µM. This IC50 is about 4.2-fold lower than that of the molecule before. Molecule `CC1Cc2c(N)ccc(C(N)=O)c2O1` (single isomer, unassigned) displayed an IC50 in series [1] of 5.33 µM. This IC50 is about 2.2-fold higher than that of the molecule before. For the molecule `CC1Cc2c(N)ccc(C(N)=O)c2O1` (single isomer, unassigned; enantiomer 1), in series [1], the IC50 came out at 2.43 µM. As for `C[C@]1(c2nc3c(C(N)=O)cccc3[nH]2)CCCN1` [VELIPARIB], the Activity entry in series [2] and in series [3] was “Non-toxic” in each case.
